Results on 21 compounds are retold here after US5030647A, “Anti-inflammatory thienylbenzylamine compounds” (Boehringer Ingelheim Pharmaceuticals, Inc., priority 1990, dated 1991).

Structures can show the parent of a compound that is named as a salt. Where two headings read alike, the source gives them in different places.

The test system of the test is paw swelling. Description: Reverse passive Arthus reaction, inhibition of paw swelling after oral dosing. It counts as in vivo. Particulars: rats; for inhibition in vivo at 10 mg/kg / inhibition in vivo at 100 mg/kg / inhibition in vivo at 30 mg/kg: Rattus norvegicus, po; for inhibition in vivo at 10 mg/kg: 10 mg/kg oral; for inhibition in vivo at 100 mg/kg: 100 mg/kg oral. The method, then: The reverse passive Arthus reaction is initiated by the interaction of antigen and antibody resulting in the formation of a precipitating immune complex, followed by fixation of complement, accumulation of leukocytes, edema and hemorrhage. The immunopathology of rheumatoid arthritis involves many of the parameters found in this reaction. Test groups (5 rats per group) are dosed orally with compounds one hour prior to the sub-plantar injection into the right hind paw of rabbit anti-ovalbumin antibody (50 μg/0.1 ml). Immediately afterwards, ovalbumin (Sigma, #5503) (5 mg/0.2 ml) is injected i.v. via the tail vein. The right hind paw volume is measured at hourly intervals, from one to four hours after the injection of the immune reactants. The change in paw volume for each animal is calculated by subtracting zero hour paw volume (before injection) from the paw volume at the time of measurement. The mean of these values is calculated for each group. Results are expressed in Table I below as percent inhibition of paw swelling compared to untreated controls.

[1] abbreviates: 2 h, 2 hours, read-out: % INHIBITION (of paw swelling) HOUR 2.
Setting [2] is: 3 h, 3 hours, read-out: % INHIBITION (of paw swelling) HOUR 3.
[3] abbreviates: 4 h, 4 hours, read-out: % INHIBITION (of paw swelling) HOUR 4.
[4] abbreviates: 2 h, 30 mg/kg oral, 2 hours, read-out: % INHIBITION (of paw swelling) HOUR 2.
[5] abbreviates: 3 h, 30 mg/kg oral, 3 hours, read-out: % INHIBITION (of paw swelling) HOUR 3.
Setting [6] is: 4 h, 30 mg/kg oral, 4 hours, read-out: % INHIBITION (of paw swelling) HOUR 4.

As for `CN(C)Cc1ccccc1C(O)c1ccc(Cl)s1` (centres unmarked) [Compound 1, 5-chloro-2-[(2-dimethylaminomethylphenyl)hydroxymethyl]thiophene], the inhibition in vivo at 10 mg/kg under setting [1] was determined as 54%, the inhibition in vivo at 10 mg/kg under setting [2] is 23.1% and the inhibition in vivo at 10 mg/kg under setting [3] came out at 17.1%. For the same compound, the inhibition in vivo at 100 mg/kg is, setting by setting: under setting [1], 87.5%; under setting [2], 71.5%; under setting [3], 67.8%.

For the compound `CN(C)Cc1ccc(C(O)c2ccccc2CN(C)C)s1` (centres unmarked) [Compound 10, 5-N,N-dimethylaminomethyl-2-[2-(N,N-dimethylaminomethylphenyl)hydroxymethyl]thiophene], the inhibition in vivo at 30 mg/kg came out at 55.6% under setting [4], 21.6% under setting [5] and 19.4% under setting [6].

Regarding `Cc1cc(Cl)sc1C(O)c1ccccc1CN(C)C` (centres unmarked) [Compound 13, 5-chloro-2-[(dimethylaminomethylphenyl)hydroxymethyl]-3-methylthiophene], the inhibition in vivo at 30 mg/kg reads like this: under setting [4], 66.8%; under setting [5], 24.1%; under setting [6], 7.3%. The inhibition in vivo at 100 mg/kg under setting [1] was 51.7%, the inhibition in vivo at 100 mg/kg under setting [2] amounted to 28.6% and the inhibition in vivo at 100 mg/kg under setting [3] stood at 3.3%.

Regarding `CN(C)Cc1ccccc1C(O)c1ccc(Br)s1` (centres unmarked) [Compound 15], the inhibition in vivo at 30 mg/kg under setting [4] came to 63.1%, the inhibition in vivo at 30 mg/kg under setting [5] was 47.1% and the inhibition in vivo at 30 mg/kg under setting [6] came to 26.7%.

Take `CN(C)Cc1ccccc1C(O)c1ccc(Cl)s1.O=C(O)/C=C/C(=O)O` (centres unmarked) [Compound 16, 5-chloro-2-[-(2-dimethylaminomethylphenyl)-1-hydroxymethyl]thiophene monofumarate]: the “% INHIBITION (of paw swelling) HOUR 2” value (30 mg/kg oral, 2 hours) stood at 17%. Further, the “% INHIBITION (of paw swelling) HOUR 3” value (30 mg/kg oral, 3 hours) was 11%. For the same compound, under “30 mg/kg oral, 4 hours”, the “% INHIBITION (of paw swelling) HOUR 4” value is 0%.

Regarding `CN(C)Cc1ccccc1C(O)c1sccc1Br` (centres unmarked) [Compound 17, 3-bromo-2-[(2-dimethylaminomethylphenyl)hydroxymethyl]thiophene monofumarate], the inhibition in vivo at 30 mg/kg under setting [4] turned out to be 49%, the inhibition in vivo at 30 mg/kg under setting [5] was found to be 5% and the inhibition in vivo at 30 mg/kg under setting [6] turned out to be 0%.

With `CN(C)Cc1ccccc1C(O)c1cc(Br)cs1` (centres unmarked) [Compound 18, 4-bromo-2-[(2-dimethylaminomethylphenyl)hydroxymethyl]thiophene], the inhibition in vivo at 30 mg/kg was determined as 35% under setting [4], 37% under setting [5] and 40% under setting [6].

In the case of `CN(C)Cc1ccccc1C(O)c1ccc(C2(C)OCCO2)s1` (centres unmarked) [Compound 19, 2-[(2-dimethylaminomethylphenyl)hydroxymethyl]-5-(1,1-ethylenedioxyethyl) thiophene], the inhibition in vivo at 30 mg/kg by setting is: under setting [4], 40%; under setting [5], 37%; under setting [6], 11%.

Turning to `CC(=O)c1ccc(C(O)c2ccccc2CN(C)C)s1` (centres unmarked) [Compound 20, 5-acetyl-2-[(2-dimethylaminomethylphenyl)hydroxymethyl]thiophene], the inhibition in vivo at 30 mg/kg is, setting by setting: under setting [4], 12%; under setting [5], 15%; under setting [6], 2%.

For `CN(C)Cc1ccccc1C(O)c1cc(Cl)sc1Cl` (centres unmarked) [Compound 25, 2,5-dichloro-3[(2-N,N-dimethylaminomethylphenyl)hydroxymethyl]thiophene hydrochloride], the inhibition in vivo at 30 mg/kg reads like this: under setting [4], 68%; under setting [5], 64%; under setting [6], 38%.

For `CN(C)Cc1ccccc1C(O)c1cscc1Br` (centres unmarked) [Compound 26, 4-bromo-3-[(2-N,N-dimethylaminomethylphenyl)hydroxymethyl]thiophene hydrochloride], the inhibition in vivo at 30 mg/kg runs as follows: under setting [4], 42%; under setting [5], 25%; under setting [6], 6%.

As for `CN(C)Cc1ccccc1C(O)c1scc(Br)c1Br` (centres unmarked) [Compound 27, 3,4-dibromo-2-[(2-N,N-dimethylaminomethylphenyl)hydroxymethyl]thiophene hydrochloride], the inhibition in vivo at 30 mg/kg runs as follows: under setting [4], 39%; under setting [5], 25%; under setting [6], 10%.

With `CN(C)Cc1ccccc1C(O)c1csc(I)c1` (centres unmarked) [Compound 28, 5-iodo-3-[(2-N,N-dimethylaminomethylphenyl)hydroxymethyl]thiophene hydrochloride], the inhibition in vivo at 30 mg/kg under setting [4] was found to be 21%, the inhibition in vivo at 30 mg/kg under setting [5] was determined as 0% and the inhibition in vivo at 30 mg/kg under setting [6] turned out to be 13%.

With `CN(C)Cc1ccccc1C(O)c1cc(I)sc1I` (centres unmarked) [Compound 29, 2,5-diiodo-3-[(2-N,N-dimethylaminomethylphenyl)hydroxymethyl]thiophene hydrochloride], the inhibition in vivo at 30 mg/kg by setting is: under setting [4], 50%; under setting [5], 29%; under setting [6], 0%.

As to `CN(C)Cc1ccccc1C(O)c1csc(Cl)c1Cl` (centres unmarked) [Compound 30, 4,5-dichloro-3-[(2-N,N-dimethylaminomethylphenyl)hydroxymethyl]thiophene hydrochloride], the inhibition in vivo at 30 mg/kg is, setting by setting: under setting [4], 47%; under setting [5], 36%.

As for `CN(C)Cc1ccccc1C(O)c1c(Cl)sc(Cl)c1Cl` (centres unmarked) [Compound 31, 2,4,5-Trichloro-3-[(2-N,N-dimethylaminomethylphenyl)hydroxymethyl]thiophene hydrochloride], the inhibition in vivo at 30 mg/kg is, setting by setting: under setting [4], 44%; under setting [5], 32%; under setting [6], 0%.

With `CN(C)Cc1ccccc1C(O)c1sc(Cl)cc1Cl` (centres unmarked) [Compound 32, 3,5-dichloro-2-[(N,N-dimethylaminomethylphenyl)hydroxymethyl]thiophene hydrochloride], the inhibition in vivo at 30 mg/kg amounted to 62% under setting [4], 47% under setting [5] and 12% under setting [6].

For the compound `CN(C)Cc1ccccc1C(C)(O)c1ccc(Br)s1` (centres unmarked) [Compound 34, N,N-dimethyl-2-[1-(5-bromothien-2-yl)-1-hydroxyethyl]benzylamine], the inhibition in vivo at 30 mg/kg worked out at 66% under setting [4], 49% under setting [5] and 14% under setting [6].

In the case of `CC(c1ccccc1C(O)c1csc(Br)c1)N(C)C` (centres unmarked) [Compound 35, 5-bromo-3-[2-(1-N,N-dimethylaminoethylphenyl)hydroxymethyl]thiophene], the inhibition in vivo at 30 mg/kg under setting [4] worked out at 58%, the inhibition in vivo at 30 mg/kg under setting [5] came to 48% and the inhibition in vivo at 30 mg/kg under setting [6] is 9%.

In the case of `CC(c1ccccc1C(O)c1ccc(Cl)s1)N(C)C` (centres unmarked) [Compound 36, 5-chloro-2-[2-(1-N,N-dimethylaminoethylphenyl)hydroxymethyl]thiophene hydrochloride], the inhibition in vivo at 30 mg/kg runs as follows: under setting [4], 52%; under setting [5], 15%; under setting [6], 3%.

Turning to `CN(C)Cc1ccccc1C(=O)c1ccsc1` [Compound 37, 3-[2-(2-N,N-dimethylaminomethylphenyl)carbonyl]thiophene], the inhibition in vivo at 30 mg/kg is, setting by setting: under setting [4], 0%; under setting [5], 0%; under setting [6], 0%.
